# Laboratory results reported in patent EP4813979A1, “COMPOUND FOR EGFR PROTEIN DEGRADATION AND USE THEREOF” (TYK Medicines, Inc., priority 2023, dated 2025).
# System: A431
# Test: Cell anti-proliferation experiment (CTG)
# Type: cell-based
# Conditions: Homo sapiens, A-431, 72 h, A431 (wild-type EGFR), class symbol
# Text: (§1) H1975 has an EGFR: T790M/L858R double mutation, PC-9 has an EGFR exon 19 deletion, and HCC827 has an exon 19 deletion mutation. Baf3-19del- T790M -C797S (Baf3-DTC) is a stable Ba/F3 clone expressing exogenous EGFR gene bearing T790M, C797S, and […] triple amino acid mutations, purchased from KYinno. Baf3-L858R-T790M - C797S (Baf3-LTC) is a stable Ba/F3 clone expressing exogenous EGFR gene bearing […], T790M, and C797S triple mutations, purchased from KYinno. A549 is a wild-type EGFR, purchased from Nanjing Kebai Biotechnology. A431 is a wild-type EGFR, purchased from Shanghai Xinyu Biotechnology. CellCounting-Lite2.0, Trypsin EDTA, 37°C CO2 incubator, cell counter, EnVision Serial No. 1050454.
# (§2) • A) Digested logarithmic phase cells with Trypsin EDTA, added culture medium to stop the reaction, and mixing well with a pipette to prepare a cell suspension. • B) Used Vi-cell to determine cell concentration, and prepared a suspension of 15,000-25,000 cells per milliliter according to the experimental purpose and cell characteristics. • C) After prepared the cell suspension, mixed it gently and added 100 µL to each well, so that the cell density to be tested is 1500-2500 per well.
# (§3) • A) Weighed approximately 2 mg the compound and calculated the required volume of DMSO according to the formula: Compound mass (mg) * Compound purity (%) / Compound molecular weight * 1000. • B) Placed the inoculated cell culture plate into an incubator and incubated for about 24 hours. Then added compounds of varying concentrations. • C) Diluted the 10mM compound stock solution to […] with culture medium, and added the […] compound solution to the second column of the deep well plate in sequence, and added […] culture medium containing 0.5% DMSO to the third to eleventh columns. • D) Gradient dilution: Taked 125 µL solution from the second column and added it to the third column, mix well; then taked 125 µL solution from the third column and added it to the fourth column, repeated this operation until the tenth column. • E) Used a multichannel pipette, aspirated 25 µL the compound from the deep-well plate and added it to a 96-well culture plate. Repeated this process three times for each compound on the 96-well plate. This will ultimately create a concentration gradient of up to 10,000 nM at a 1:4 ratio on the 96-well plate.
# (§4) • A) The effects of the compound were observed under an inverted microscope after the 96-well plate was incubated in an incubator for 72 hours. • B) Added 25 µL CTG solution to each well, placed on a shaker for 10 minutes, and read the […] of each well.
# (§5) Calculate the % Cell Viability using the following formula: %Cell Viability = 100% × (Lum_Sample−Lum_LC)/(Lum_HC−Lum_LC) [formula] • Lum_HC: Cell readings from the 0.1% DMSO control group • Lum_Sample: Cell readings with added compound • Lum_LC: Blank culture medium reading
# (§6) The IC50 value was obtained by curve fitting using GraphPad Prism 8 software.
row,SMILES,IC50
1,CCc1cc(Nc2ncc(Cl)c(Nc3ccccc3P(C)(C)=O)n2)c(OC)cc1N1CCC(N(C)C(=O)CN2CCC(c3cc4c(cc3F)c(N3CCC(=O)NC3=O)nn4C)C(F)(F)C2)CC1 (stereo not shown) [TC-089],> 1000 nM
2,CCc1cc(Nc2ncc(Cl)c(Nc3ccccc3P(C)(C)=O)n2)c(OC)cc1N1CC2(CCN(C(=O)CN3CCC(c4cc5c(cc4F)c(N4CCC(=O)NC4=O)nn5C)C(F)(F)C3)C2)C1 (stereo not shown) [TC-105],100 to 1000 nM
3,CCc1cc(Nc2ncc(Cl)c(Nc3ccccc3P(C)(C)=O)n2)c(OC)cc1N1CCC2(CCN(C(=O)CN3CCC(c4cc5c(cc4F)c(N4CCC(=O)NC4=O)nn5C)C(F)(F)C3)CC2)C1 (stereo not shown) [TC-111],> 1000 nM
4,CCc1cc(Nc2ncc(Cl)c(Nc3ccccc3P(C)(C)=O)n2)c(OC)nc1N1CCN(C(=O)CN2CCC(c3cc4c(cc3F)c(N3CCC(=O)NC3=O)nn4C)C(F)(F)C2)CC1 (stereo not shown) [TC-115],> 1000 nM

# System: A549
# Test: Cell anti-proliferation experiment (CTG)
# Type: cell-based
# Conditions: Homo sapiens, A549, 72 h, A549 (wild-type EGFR), class symbol
# Text: as §1, §2, §3, §4, §5, §6
row,SMILES,IC50
1,CCc1cc(Nc2ncc(Cl)c(Nc3ccccc3P(C)(C)=O)n2)c(OC)cc1N1CCC(N(C)C(=O)CN2CCC(c3cc4c(cc3F)c(N3CCC(=O)NC3=O)nn4C)C(F)(F)C2)CC1 (stereo not shown) [TC-089],> 1000 nM
2,CCc1cc(Nc2ncc(Cl)c(Nc3ccccc3P(C)(C)=O)n2)c(OC)cc1N1CC2(CCN(C(=O)CN3CCC(c4cc5c(cc4F)c(N4CCC(=O)NC4=O)nn5C)C(F)(F)C3)C2)C1 (stereo not shown) [TC-105],100 to 1000 nM
3,CCc1cc(Nc2ncc(Cl)c(Nc3ccccc3P(C)(C)=O)n2)c(OC)cc1N1CCC2(CCN(C(=O)CN3CCC(c4cc5c(cc4F)c(N4CCC(=O)NC4=O)nn5C)C(F)(F)C3)CC2)C1 (stereo not shown) [TC-111],100 to 1000 nM
4,CCc1cc(Nc2ncc(Cl)c(Nc3ccccc3P(C)(C)=O)n2)c(OC)nc1N1CCN(C(=O)CN2CCC(c3cc4c(cc3F)c(N3CCC(=O)NC3=O)nn4C)C(F)(F)C2)CC1 (stereo not shown) [TC-115],100 to 1000 nM

# System: Baf3-19del- T790M -C797S (Baf3-DTC)
# Test: Cell anti-proliferation experiment (CTG)
# Type: cell-based
# Conditions: 72 h, class symbol
# Text: as §1, §2, §3, §4, §5, §6
row,SMILES,IC50
1,CCc1cc(Nc2ncc(Cl)c(Nc3ccccc3P(C)(C)=O)n2)c(OC)cc1N1CCC(N(C)C(=O)CN2CCC(c3cc4c(cc3F)c(N3CCC(=O)NC3=O)nn4C)C(F)(F)C2)CC1 (stereo not shown) [TC-089],10 to 100 nM
2,CCc1cc(Nc2ncc(Cl)c(Nc3ccccc3P(C)(C)=O)n2)c(OC)cc1N1CC2(CCN(C(=O)CN3CCC(c4cc5c(cc4F)c(N4CCC(=O)NC4=O)nn5C)C(F)(F)C3)C2)C1 (stereo not shown) [TC-105],10 to 100 nM
3,CCc1cc(Nc2ncc(Cl)c(Nc3ccccc3P(C)(C)=O)n2)c(OC)cc1N1CCC2(CCN(C(=O)CN3CCC(c4cc5c(cc4F)c(N4CCC(=O)NC4=O)nn5C)C(F)(F)C3)CC2)C1 (stereo not shown) [TC-111],10 to 100 nM
4,CCc1cc(Nc2ncc(Cl)c(Nc3ccccc3P(C)(C)=O)n2)c(OC)nc1N1CCN(C(=O)CN2CCC(c3cc4c(cc3F)c(N3CCC(=O)NC3=O)nn4C)C(F)(F)C2)CC1 (stereo not shown) [TC-115],10 to 100 nM

# System: Baf3-L858R-T790M - C797S (Baf3-LTC)
# Test: Cell anti-proliferation experiment (CTG)
# Type: cell-based
# Conditions: 72 h, class symbol
# Text: as §1, §2, §3, §4, §5, §6
row,SMILES,IC50
1,CCc1cc(Nc2ncc(Cl)c(Nc3ccccc3P(C)(C)=O)n2)c(OC)cc1N1CCC(N(C)C(=O)CN2CCC(c3cc4c(cc3F)c(N3CCC(=O)NC3=O)nn4C)C(F)(F)C2)CC1 (stereo not shown) [TC-089],10 to 100 nM
2,CCc1cc(Nc2ncc(Cl)c(Nc3ccccc3P(C)(C)=O)n2)c(OC)cc1N1CC2(CCN(C(=O)CN3CCC(c4cc5c(cc4F)c(N4CCC(=O)NC4=O)nn5C)C(F)(F)C3)C2)C1 (stereo not shown) [TC-105],10 to 100 nM
3,CCc1cc(Nc2ncc(Cl)c(Nc3ccccc3P(C)(C)=O)n2)c(OC)cc1N1CCC2(CCN(C(=O)CN3CCC(c4cc5c(cc4F)c(N4CCC(=O)NC4=O)nn5C)C(F)(F)C3)CC2)C1 (stereo not shown) [TC-111],10 to 100 nM
4,CCc1cc(Nc2ncc(Cl)c(Nc3ccccc3P(C)(C)=O)n2)c(OC)nc1N1CCN(C(=O)CN2CCC(c3cc4c(cc3F)c(N3CCC(=O)NC3=O)nn4C)C(F)(F)C2)CC1 (stereo not shown) [TC-115],10 to 100 nM

# System: H1975
# Test: Cell anti-proliferation experiment (CTG)
# Type: cell-based
# Conditions: Homo sapiens, NCI-H1975, 72 h, H1975 (EGFR T790M/L858R), class symbol
# Text: as §1, §2, §3, §4, §5, §6
row,SMILES,IC50
1,CCc1cc(Nc2ncc(Cl)c(Nc3ccccc3P(C)(C)=O)n2)c(OC)cc1N1CCC(N(C)C(=O)CN2CCC(c3cc4c(cc3F)c(N3CCC(=O)NC3=O)nn4C)C(F)(F)C2)CC1 (stereo not shown) [TC-089],10 to 100 nM
2,CCc1cc(Nc2ncc(Cl)c(Nc3ccccc3P(C)(C)=O)n2)c(OC)cc1N1CC2(CCN(C(=O)CN3CCC(c4cc5c(cc4F)c(N4CCC(=O)NC4=O)nn5C)C(F)(F)C3)C2)C1 (stereo not shown) [TC-105],100 to 1000 nM
3,CCc1cc(Nc2ncc(Cl)c(Nc3ccccc3P(C)(C)=O)n2)c(OC)cc1N1CCC2(CCN(C(=O)CN3CCC(c4cc5c(cc4F)c(N4CCC(=O)NC4=O)nn5C)C(F)(F)C3)CC2)C1 (stereo not shown) [TC-111],100 to 1000 nM
4,CCc1cc(Nc2ncc(Cl)c(Nc3ccccc3P(C)(C)=O)n2)c(OC)nc1N1CCN(C(=O)CN2CCC(c3cc4c(cc3F)c(N3CCC(=O)NC3=O)nn4C)C(F)(F)C2)CC1 (stereo not shown) [TC-115],100 to 1000 nM

# System: HCC827
# Test: Cell anti-proliferation experiment (CTG)
# Type: cell-based
# Conditions: Homo sapiens, HCC827, 72 h, HCC827 (exon 19 deletion), class symbol
# Text: as §1, §2, §3, §4, §5, §6
row,SMILES,IC50
1,CCc1cc(Nc2ncc(Cl)c(Nc3ccccc3P(C)(C)=O)n2)c(OC)cc1N1CCC(N(C)C(=O)CN2CCC(c3cc4c(cc3F)c(N3CCC(=O)NC3=O)nn4C)C(F)(F)C2)CC1 (stereo not shown) [TC-089],100 to 1000 nM
2,CCc1cc(Nc2ncc(Cl)c(Nc3ccccc3P(C)(C)=O)n2)c(OC)cc1N1CC2(CCN(C(=O)CN3CCC(c4cc5c(cc4F)c(N4CCC(=O)NC4=O)nn5C)C(F)(F)C3)C2)C1 (stereo not shown) [TC-105],10 to 100 nM
3,CCc1cc(Nc2ncc(Cl)c(Nc3ccccc3P(C)(C)=O)n2)c(OC)cc1N1CCC2(CCN(C(=O)CN3CCC(c4cc5c(cc4F)c(N4CCC(=O)NC4=O)nn5C)C(F)(F)C3)CC2)C1 (stereo not shown) [TC-111],100 to 1000 nM
4,CCc1cc(Nc2ncc(Cl)c(Nc3ccccc3P(C)(C)=O)n2)c(OC)nc1N1CCN(C(=O)CN2CCC(c3cc4c(cc3F)c(N3CCC(=O)NC3=O)nn4C)C(F)(F)C2)CC1 (stereo not shown) [TC-115],100 to 1000 nM

# System: PC-9
# Test: Cell anti-proliferation experiment (CTG)
# Type: cell-based
# Conditions: Homo sapiens, PC-9, 72 h, PC-9 (EGFR exon 19 deletion), class symbol
# Text: as §1, §2, §3, §4, §5, §6
row,SMILES,IC50
1,CCc1cc(Nc2ncc(Cl)c(Nc3ccccc3P(C)(C)=O)n2)c(OC)cc1N1CCC(N(C)C(=O)CN2CCC(c3cc4c(cc3F)c(N3CCC(=O)NC3=O)nn4C)C(F)(F)C2)CC1 (stereo not shown) [TC-089],100 to 1000 nM
2,CCc1cc(Nc2ncc(Cl)c(Nc3ccccc3P(C)(C)=O)n2)c(OC)cc1N1CC2(CCN(C(=O)CN3CCC(c4cc5c(cc4F)c(N4CCC(=O)NC4=O)nn5C)C(F)(F)C3)C2)C1 (stereo not shown) [TC-105],100 to 1000 nM
3,CCc1cc(Nc2ncc(Cl)c(Nc3ccccc3P(C)(C)=O)n2)c(OC)cc1N1CCC2(CCN(C(=O)CN3CCC(c4cc5c(cc4F)c(N4CCC(=O)NC4=O)nn5C)C(F)(F)C3)CC2)C1 (stereo not shown) [TC-111],100 to 1000 nM
4,CCc1cc(Nc2ncc(Cl)c(Nc3ccccc3P(C)(C)=O)n2)c(OC)nc1N1CCN(C(=O)CN2CCC(c3cc4c(cc3F)c(N3CCC(=O)NC3=O)nn4C)C(F)(F)C2)CC1 (stereo not shown) [TC-115],100 to 1000 nM
